According to ChEMBL document CHEMBL1135525, “Probing the ATP ribose-binding domain of cyclin-dependent kinases 1 and 2 with O(6)-substituted guanine derivatives” (J Med Chem, 2002):

How the values were obtained:
[1] = target: T1, Cyclin-dependent kinase 2/cyclin A (Homo sapiens, UniProt P24941); assay: Inhibition of human Cyclin-dependent kinase 2-cyclin A; type: protein-complex assay
[2] = target: T2, Cyclin-dependent kinase 1/cyclin B1 (Homo sapiens, UniProt P06493+P14635); assay: Inhibition of starfish oocyte (Marthasteria glacialis) Cyclin-dependent kinase 1-cyclin B1 at a concentration of 100 uM; type: protein-complex assay; conditions: Asteroidea
Target sequence in this assay (P06493 whole entry, looked up): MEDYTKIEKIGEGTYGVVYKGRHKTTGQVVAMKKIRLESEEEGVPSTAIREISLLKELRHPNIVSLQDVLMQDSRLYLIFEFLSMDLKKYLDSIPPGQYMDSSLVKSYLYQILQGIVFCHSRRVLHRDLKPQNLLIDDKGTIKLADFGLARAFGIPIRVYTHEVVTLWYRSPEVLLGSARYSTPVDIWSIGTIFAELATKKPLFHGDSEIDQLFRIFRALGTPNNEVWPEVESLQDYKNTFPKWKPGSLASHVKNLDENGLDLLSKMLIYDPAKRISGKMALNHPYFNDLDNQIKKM
Target sequence in this assay (P14635 whole entry, looked up): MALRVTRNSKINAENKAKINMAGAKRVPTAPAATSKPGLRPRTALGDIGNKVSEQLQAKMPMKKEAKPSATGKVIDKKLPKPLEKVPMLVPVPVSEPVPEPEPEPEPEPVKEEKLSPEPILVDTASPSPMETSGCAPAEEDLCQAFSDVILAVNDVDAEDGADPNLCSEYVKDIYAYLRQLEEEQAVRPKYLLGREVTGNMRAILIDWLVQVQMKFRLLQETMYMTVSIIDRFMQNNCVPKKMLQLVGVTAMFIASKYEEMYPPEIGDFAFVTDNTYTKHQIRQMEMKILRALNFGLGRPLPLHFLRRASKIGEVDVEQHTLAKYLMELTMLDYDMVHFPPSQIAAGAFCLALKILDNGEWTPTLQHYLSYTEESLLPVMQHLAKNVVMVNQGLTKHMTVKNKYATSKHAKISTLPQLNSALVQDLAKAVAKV

[3] = target: T3, Cyclin-dependent kinase 2/cyclin A (Homo sapiens) (UniProt P24941+P20248+P78396); assay: Inhibition of human Cyclin-dependent kinase 2-cyclin A at a concentration of 100 uM; type: protein-complex assay
[4] = target: T2, Cyclin-dependent kinase 1/cyclin B1; assay: Inhibition of starfish oocyte (Marthasteria glacialis) Cyclin-dependent kinase 1-cyclin B1 at a concentration of 10 uM; type: protein-complex assay; conditions: Asteroidea
Target sequence in this assay (P06493 whole entry, looked up): as the sequence (P06493 whole entry, looked up) above
Target sequence in this assay (P14635 whole entry, looked up): as the sequence (P14635 whole entry, looked up) above

[5] = target: T3, Cyclin-dependent kinase 2/cyclin A (Homo sapiens); assay: Inhibition of human Cyclin-dependent kinase 2-cyclin A at a concentration of 10 uM; type: protein-complex assay
[6] = target: T3, Cyclin-dependent kinase 2/cyclin A (Homo sapiens); assay: Inhibition of human Cyclin-dependent kinase 2-cyclin A3 at a concentration of 100 uM; type: protein-complex assay
MCF7 = assay: Inhibition of MCF-7 human breast carcinoma cell proliferation; type: functional
[7] = target: T3, Cyclin-dependent kinase 2/cyclin A (Homo sapiens); assay: Inhibition of Cyclin-dependent kinase 2-cyclin A at 10 uM; type: protein-complex assay
[8] = target: T2, Cyclin-dependent kinase 1/cyclin B1; assay: Inhibition of starfish oocyte (Marthasteria glacialis) Cyclin-dependent kinase 1-cyclin B1; type: protein-complex assay, Asteroidea
Target sequence in this assay (P06493 whole entry): as the sequence (P06493 whole entry, looked up) above
Target sequence in this assay (P14635 whole entry): as the sequence (P14635 whole entry, looked up) above

[9] = target: T3, Cyclin-dependent kinase 2/cyclin A (Homo sapiens); assay: Inhibition of Cyclin-dependent kinase 2-cyclin A at 100 uM; type: protein-complex assay
[10] = target: T1, Cyclin-dependent kinase 2/cyclin A; assay: Inhibition of human Cyclin-dependent kinase 2-cyclin A3; type: protein-complex assay
[11] = target: T3, Cyclin-dependent kinase 2/cyclin A (Homo sapiens); assay: Inhibition of human Cyclin-dependent kinase 2-cyclin A3 at 100 uM; type: protein-complex assay
[12] = target: T3, Cyclin-dependent kinase 2/cyclin A (Homo sapiens); assay: Inhibition of human Cyclin-dependent kinase 2-cyclin A at 100 uM; type: protein-complex assay

| inhibition [2] [%] | Compound | IC50 [1] [µM] | further results |
| --- | --- | --- | --- |
|  | C=CCCCCOc1nc(N)nc2[nH]cnc12 | 47 |  |
| 36 | COc1nc(N)nc2nc[nH]c12 |  | inhibition [3]: 35% |
|  | Nc1nc(OCc2ccccc2)c2[nH]cnc2n1 [6-O-BENZYLGUANINE] | 35 |  |
|  | C=C(C)[C@H]1CC=C(COc2nc(N)nc3[nH]cnc23)CC1 |  | inhibition [4]: 17%; inhibition [5]: 18% |
| 55 | Nc1nc(OCc2cccnc2)c2nc[nH]c2n1 |  | inhibition [6]: 43% |
|  | C=C(COc1nc(N)nc2nc[nH]c12)c1ccccc1 | 34 | GI50 (MCF7): 28 µM |
| 41 | CC(C)C(=O)COc1nc(N)nc2nc[nH]c12 |  | inhibition [3]: 31% |
|  | CC(C)CCOc1nc(N)nc2nc[nH]c12 | 26 |  |
|  | Nc1nc(OCC=C2CCCCC2)c2nc[nH]c2n1 |  | inhibition [4]: 21%; inhibition [5]: 12% |
|  | C=C(CC)COc1nc(N)nc2[nH]cnc12 | 21 |  |
|  | Nc1nc(OCC2=CCCCC2)c2[nH]cnc2n1 | 22 |  |
| 10 | CC1(C)OC2OC(COc3nc(N)nc4[nH]cnc34)C3OC(C)(C)OC3C2O1 (stereo not drawn) |  | inhibition [6]: 4% |
|  | C=C(COc1nc(N)nc2[nH]cnc12)C(C)C | 16 |  |
| 49 | COCC(COc1nc(N)nc2[nH]cnc12)OC (stereo not drawn) |  | inhibition [3]: 41% |
| 65 | COc1cccc(COc2nc(N)nc3[nH]cnc23)c1 |  | inhibition [7]: 49% |
| 52 | Nc1nc(OCC2CCNCC2)c2nc[nH]c2n1 |  | inhibition [6]: 43% |
| 48 | CCOc1nc(N)nc2[nH]cnc12 |  | inhibition [3]: 51% |
|  | CCOC.CCOC(C)COc1[nH]c(N)nc2ncnc1-2 (stereo not drawn) | 33 |  |
|  | CCCCOc1nc(N)nc2[nH]cnc12 | 48 |  |
|  | C#CCOc1nc(N)nc2nc[nH]c12 | 90 |  |

| inhibition [2] [%] | Compound | IC50 [1] [µM] | further results |
| --- | --- | --- | --- |
| 52 | Nc1nc(OCC2COc3ccccc3O2)c2nc[nH]c2n1 (stereo not drawn) |  | inhibition [6]: 52% |
|  | CCCCCOc1nc(N)nc2[nH]cnc12 | 49 |  |
| 49 | Nc1nc(OCC2CCCO2)c2[nH]cnc2n1 (stereo not drawn) |  | inhibition [3]: 40% |
|  | CCC(COc1nc(N)nc2[nH]cnc12)(OC)OC | 20 | IC50 [8]: 19 µM |
|  | CC(C)COc1nc(N)nc2[nH]cnc12 | 42 |  |
|  | Nc1nc(OCC23CC4CC(CC(C4)C2)C3)c2nc[nH]c2n1 |  | inhibition [4]: 55%; inhibition [5]: 29% |
|  | CC(C)Oc1[nH]c(N)nc2ncnc1-2 | 75 |  |
|  | Nc1nc(OCc2ccc3ccccc3c2)c2[nH]cnc2n1 |  | inhibition [4]: 12%; inhibition [5]: 9% |
|  | Nc1nc(OCC2CC=CCC2)c2[nH]cnc2n1 (stereo not drawn) | 13 | GI50 (MCF7): 37 µM |
| 65 | Nc1cccc(COc2nc(N)nc3[nH]cnc23)c1 |  | inhibition [9]: 52% |
|  | Nc1nc(OCCC2CCCCC2)c2nc[nH]c2n1 | 44 |  |
| 31 | CC1(C)OC[C@H](COc2nc(N)nc3[nH]cnc23)O1 |  | inhibition [6]: 27% |
| 50 | Nc1nc(OC[C@H]2CCC(=O)N2)c2nc[nH]c2n1 |  | inhibition [6]: 35% |
| 43 | CC1(C)OCC(COc2nc(N)nc3[nH]cnc23)O1 (stereo not drawn) |  | inhibition [6]: 36% |
|  | CCCOc1nc(N)nc2nc[nH]c12 | 67 |  |
|  | Nc1nc(OCc2cccc(Cl)c2)c2nc[nH]c2n1 |  | inhibition [4]: 28%; inhibition [7]: 19% |
|  | Nc1nc(OCC2=CCCC2)c2[nH]cnc2n1 | 31 |  |
|  | CC(C)C1(COc2nc(N)nc3[nH]cnc23)OCCO1 |  | IC50 [10]: 65 µM |
|  | C=CCOc1nc(N)nc2nc[nH]c12 | 78 |  |
| 70 | Nc1nc(OCC2CCCNC2)c2nc[nH]c2n1 (stereo not drawn) |  | inhibition [6]: 64% |

| inhibition [2] [%] | Compound | IC50 [1] [µM] | further results |
| --- | --- | --- | --- |
|  | CCC(C)COc1nc(N)nc2nc[nH]c12 (stereo not drawn) | 15 |  |
|  | Nc1nc(OCC2CCCC2)c2nc[nH]c2n1 | 21 |  |
| 46 | CC1(C)OC[C@@H](COc2nc(N)nc3[nH]cnc23)O1 |  | inhibition [6]: 39% |
|  | Nc1nc(OCCc2ccccc2)c2nc[nH]c2n1 | 65 |  |
|  | CC/C=C/CCOc1nc(N)nc2[nH]cnc12 | 69 |  |
|  | Nc1nc(OCC2CCCCC2)c2nc[nH]c2n1 |  | GI50 (MCF7): 20 µM |
| 50 | Nc1nc(OCC2CCCCO2)c2nc[nH]c2n1 (stereo not drawn) |  | inhibition [11]: 43% |
|  | CCCCCCCOc1nc(N)nc2[nH]cnc12 | > 100 | IC50 [8]: 62 µM |
| 10 | COC1OC(COc2nc(N)nc3[nH]cnc23)C2OC(C)(C)OC12 (stereo not drawn) |  | inhibition [6]: 16%; GI50 (MCF7): > 100 µM |
| 35 | Nc1nc(OCC(O)CO)c2nc[nH]c2n1 (stereo not drawn) |  | inhibition [3]: 33% |
| 15 | CC(=O)COc1nc(N)nc2[nH]cnc12 |  | inhibition [3]: 16% |
| 26 | Nc1nc(OCC2COC3(CCCCC3)O2)c2[nH]cnc2n1 (stereo not drawn) |  | inhibition [6]: 29% |
| 70 | Cc1cccc(COc2nc(N)nc3nc[nH]c23)c1 |  | inhibition [12]: 52% |
| 58 | Nc1nc(OCc2ccccn2)c2nc[nH]c2n1 |  | inhibition [6]: 43% |
|  | Nc1nc(OCc2cccc3ccccc23)c2nc[nH]c2n1 |  | inhibition [4]: 10%; inhibition [5]: 3% |
| 22 | Nc1nc(OC[C@@H]2CCC(=O)N2)c2nc[nH]c2n1 |  | inhibition [6]: 15% |
|  | CCC(C)Oc1nc(N)nc2[nH]cnc12 (stereo not drawn) | 25 |  |
|  | C=C(C)COc1nc(N)nc2nc[nH]c12 | 35 |  |
